From US6770596B1, “Fused tricyclic compounds, process for their preparation, and herbicidal compositions containing them” (Ishihara Sangyo Kaisha Ltd., priority 2002, dated 2004)

What was measured:
Assay type in all cases: in vivo
[1] = test system: johnsongrass (Sorghum halepense, SOH); assay: Post-emerge test, johnsongrass; conditions: 250 g ai/ha, 14 days after application, rating scale 0-100 (0 no damage, 100 complete death)
Text: (§1) A standard greenhouse herbicide activity screening system was used to evaluate the herbicidal efficacy and crop safety of these test compounds. Seven broadleaf weed species including redroot pigweed (Amaranthus retroflexus, AMR), velvetleaf (Abutilon theophrasti, ABT), sicklepod (Cassia obtusifolia, CAO), ivyleaf morningglory (Ipomoea hederacea, IPH), lambsquarters (Chenopodium album, CHA), common ragweed (Ambrosia artemisiifolia L., AML), and cocklebur (Xanthium strumariunt, XAS) were used as test species. Four grass weed species including green foxtail (Setaria viridis, SEV), barnyardgrass (Echinachloa crus-galli, ECC), johnsongrass (Sorghum halepense, SOH), and large crabgrass (Digitaria sanguinalis, DIS) were also used. In addition, four crop species, field corn (Zea mays L., var. Dekalb 535, CORN), soybean (Glycine max L., var. Pella 86, SOY), upland rice (Oryza sp., var.Tebonnet, RICE), and wheat (Triticum aestivum) were included all plants were grown in 10 cm square plastic pots which were filled with a sandy loam soil mix.
(§2) For pre-emerge tests, seeds were planted one day prior to application of the test compounds. All test compounds were dissolved in acetone and applied to the test pots in a volume of 187 l/ha. Test materials were applied at rates ranging from 8 g ai/ha to 1000 g ai/ha using a track sprayer equipped with a TJ8001E even flow flat fan spray nozzle. This application simulates a typical commercial field herbicide application.
(§3) For post-emerge tests, seeds were planted 8-21 days prior to the test to allow emergence and good foliage development prior to application of the test substances. At the time of the post-emerge application, plants of all species were usually at the 2-3 leaf stage of development. In the postemerge test, a commercial non-ionic surfactant was also included (0.25% v/v) to enhance wetting of the leaf surfaces of target plants.
(§4) At 14 days after application of the test materials, phytotoxicity ratings were recorded. A rating scale of 0-100 was used for both pre and post emerge tests as previously described in Research Methods in Weed Science, 2nd edition, B, Truelove, Ed., Southern Weed Science Society, Auburn University, Auburn, Ala., 1977. Briefly, “0” corresponds to no damage and “100” corresponds to complete death of all plants in the test unit. This scale was used both to determine efficacy against weed species and damage to crop species. Herbicide activity data for various compounds of this invention, which are shown by compound No. in Tables 1-3, are shown in Tables 5 and 6.

[2] = test system: common ragweed (Ambrosia artemisiifolia L., AML); assay: Post-emerge test, common ragweed; conditions: 250 g ai/ha, 14 days after application, rating scale 0-100 (0 no damage, 100 complete death)
Text: as §1, §2, §3, §4

[3] = test system: field corn (Zea mays L., var. Dekalb 535, CORN); assay: Post-emerge test, crop damage field corn; conditions: post-emerge, 250 g ai/ha, 14 days after application, rating scale 0-100 (0 no damage, 100 complete death)
Text: as §1, §2, §3, §4

[4] = test system: cocklebur (Xanthium strumariunt, XAS); assay: Post-emerge test, cocklebur; conditions: 250 g ai/ha, 14 days after application, rating scale 0-100 (0 no damage, 100 complete death)
Text: as §1, §2, §3, §4

[5] = test system: redroot pigweed (Amaranthus retroflexus, AMR); assay: Pre-emerge test, redroot pigweed; conditions: 250 g ai/ha, 14 days after application, rating scale 0-100 (0 no damage, 100 complete death)
Text: as §1, §2, §4

[6] = test system: barnyardgrass (Echinachloa crus-galli, ECC); assay: Pre-emerge test, barnyardgrass; conditions: 250 g ai/ha, 14 days after application, rating scale 0-100 (0 no damage, 100 complete death)
Text: as §1, §2, §4

[7] = test system: common ragweed (Ambrosia artemisiifolia L., AML); assay: Pre-emerge test, common ragweed; conditions: 250 g ai/ha, 14 days after application, rating scale 0-100 (0 no damage, 100 complete death)
Text: as §1, §2, §4

[8] = test system: wheat (Triticum aestivum); assay: Pre-emerge test, crop damage wheat; conditions: pre-emerge, 250 g ai/ha, 14 days after application, rating scale 0-100 (0 no damage, 100 complete death)
Text: as §1, §2, §4

[9] = test system: soybean (Glycine max L., var. Pella 86, SOY); assay: Post-emerge test, crop damage soybean; conditions: post-emerge, 250 g ai/ha, 14 days after application, rating scale 0-100 (0 no damage, 100 complete death)
Text: as §1, §2, §3, §4

[10] = test system: barnyardgrass (Echinachloa crus-galli, ECC); assay: Post-emerge test, barnyardgrass; conditions: 250 g ai/ha, 14 days after application, rating scale 0-100 (0 no damage, 100 complete death)
Text: as §1, §2, §3, §4

[11] = test system: sicklepod (Cassia obtusifolia, CAO); assay: Pre-emerge test, sicklepod; conditions: 250 g ai/ha, 14 days after application, rating scale 0-100 (0 no damage, 100 complete death)
Text: as §1, §2, §4

[12] = test system: ivyleaf morningglory (Ipomoea hederacea, IPH); assay: Post-emerge test, ivyleaf morningglory; conditions: 250 g ai/ha, 14 days after application, rating scale 0-100 (0 no damage, 100 complete death)
Text: as §1, §2, §3, §4

[13] = test system: wheat (Triticum aestivum); assay: Post-emerge test, crop damage wheat; conditions: post-emerge, 250 g ai/ha, 14 days after application, rating scale 0-100 (0 no damage, 100 complete death)
Text: as §1, §2, §3, §4

[14] = test system: green foxtail (Setaria viridis, SEV); assay: Post-emerge test, green foxtail; conditions: 250 g ai/ha, 14 days after application, rating scale 0-100 (0 no damage, 100 complete death)
Text: as §1, §2, §3, §4

[15] = test system: soybean (Glycine max L., var. Pella 86, SOY); assay: Pre-emerge test, crop damage soybean; conditions: pre-emerge, 250 g ai/ha, 14 days after application, rating scale 0-100 (0 no damage, 100 complete death)
Text: as §1, §2, §4

[16] = test system: velvetleaf (Abutilon theophrasti, ABT); assay: Pre-emerge test, velvetleaf; conditions: 250 g ai/ha, 14 days after application, rating scale 0-100 (0 no damage, 100 complete death)
Text: as §1, §2, §4

[17] = test system: large crabgrass (Digitaria sanguinalis, DIS); assay: Post-emerge test, large crabgrass; conditions: 250 g ai/ha, 14 days after application, rating scale 0-100 (0 no damage, 100 complete death)
Text: as §1, §2, §3, §4

[18] = test system: green foxtail (Setaria viridis, SEV); assay: Pre-emerge test, green foxtail; conditions: 250 g ai/ha, 14 days after application, rating scale 0-100 (0 no damage, 100 complete death)
Text: as §1, §2, §4

[19] = test system: upland rice (Oryza sp., var.Tebonnet, RICE); assay: Post-emerge test, crop damage upland rice; conditions: post-emerge, 250 g ai/ha, 14 days after application, rating scale 0-100 (0 no damage, 100 complete death)
Text: as §1, §2, §3, §4

[20] = test system: cocklebur (Xanthium strumariunt, XAS); assay: Pre-emerge test, cocklebur; conditions: 250 g ai/ha, 14 days after application, rating scale 0-100 (0 no damage, 100 complete death)
Text: as §1, §2, §4

[21] = test system: velvetleaf (Abutilon theophrasti, ABT); assay: Post-emerge test, velvetleaf; conditions: 250 g ai/ha, 14 days after application, rating scale 0-100 (0 no damage, 100 complete death)
Text: as §1, §2, §3, §4

[22] = test system: redroot pigweed (Amaranthus retroflexus, AMR); assay: Post-emerge test, redroot pigweed; conditions: 250 g ai/ha, 14 days after application, rating scale 0-100 (0 no damage, 100 complete death)
Text: as §1, §2, §3, §4

[23] = test system: large crabgrass (Digitaria sanguinalis, DIS); assay: Pre-emerge test, large crabgrass; conditions: 250 g ai/ha, 14 days after application, rating scale 0-100 (0 no damage, 100 complete death)
Text: as §1, §2, §4

[24] = test system: johnsongrass (Sorghum halepense, SOH); assay: Pre-emerge test, johnsongrass; conditions: 250 g ai/ha, 14 days after application, rating scale 0-100 (0 no damage, 100 complete death)
Text: as §1, §2, §4

[25] = test system: lambsquarters (Chenopodium album, CHA); assay: Pre-emerge test, lambsquarters; conditions: 250 g ai/ha, 14 days after application, rating scale 0-100 (0 no damage, 100 complete death)
Text: as §1, §2, §4

[26] = test system: field corn (Zea mays L., var. Dekalb 535, CORN); assay: Pre-emerge test, crop damage field corn; conditions: pre-emerge, 250 g ai/ha, 14 days after application, rating scale 0-100 (0 no damage, 100 complete death)
Text: as §1, §2, §4

[27] = test system: ivyleaf morningglory (Ipomoea hederacea, IPH); assay: Pre-emerge test, ivyleaf morningglory; conditions: 250 g ai/ha, 14 days after application, rating scale 0-100 (0 no damage, 100 complete death)
Text: as §1, §2, §4

[28] = test system: sicklepod (Cassia obtusifolia, CAO); assay: Post-emerge test, sicklepod; conditions: 250 g ai/ha, 14 days after application, rating scale 0-100 (0 no damage, 100 complete death)
Text: as §1, §2, §3, §4

[29] = test system: lambsquarters (Chenopodium album, CHA); assay: Post-emerge test, lambsquarters; conditions: 250 g ai/ha, 14 days after application, rating scale 0-100 (0 no damage, 100 complete death)
Text: as §1, §2, §3, §4

[30] = test system: upland rice (Oryza sp., var.Tebonnet, RICE); assay: Pre-emerge test, crop damage upland rice; conditions: pre-emerge, 250 g ai/ha, 14 days after application, rating scale 0-100 (0 no damage, 100 complete death)
Text: as §1, §2, §4

SMILES	Post-emerge Herbicidal Activity SOH (phytotoxicity rating) [1]	Post-emerge Herbicidal Activity AML (phytotoxicity rating) [2]	Post-emerge crop damage CORN (phytotoxicity rating) [3]	Post-emerge Herbicidal Activity XAS (phytotoxicity rating) [4]	Pre-emerge Herbicidal Activity AMR (phytotoxicity rating) [5]	Pre-emerge Herbicidal Activity ECC (phytotoxicity rating) [6]	Pre-emerge Herbicidal Activity AML (phytotoxicity rating) [7]	Pre-emerge crop damage WHEAT (phytotoxicity rating) [8]	Post-emerge crop damage SOY (phytotoxicity rating) [9]	Post-emerge Herbicidal Activity ECC (phytotoxicity rating) [10]	Pre-emerge Herbicidal Activity CAO (phytotoxicity rating) [11]	Post-emerge Herbicidal Activity IPH (phytotoxicity rating) [12]	Post-emerge crop damage WHEAT (phytotoxicity rating) [13]	Post-emerge Herbicidal Activity SEV (phytotoxicity rating) [14]	Pre-emerge crop damage SOY (phytotoxicity rating) [15]	Pre-emerge Herbicidal Activity ABT (phytotoxicity rating) [16]	Post-emerge Herbicidal Activity DIS (phytotoxicity rating) [17]	Pre-emerge Herbicidal Activity SEV (phytotoxicity rating) [18]	Post-emerge crop damage RICE (phytotoxicity rating) [19]	Pre-emerge Herbicidal Activity XAS (phytotoxicity rating) [20]	further results
CC1Oc2cc(F)c(-c3nn(C)c(OC(F)F)c3Cl)c3c2N(C1=O)C(C)C(=O)N3 (mixture of isomers) [1-57]	40	80	10	100	100	100	100	35	100	80	100	100	50	99	50	100	10	100	65	95	Post-emerge Herbicidal Activity ABT (phytotoxicity rating) [21]: 100; Post-emerge Herbicidal Activity AMR (phytotoxicity rating) [22]: 100; Pre-emerge Herbicidal Activity DIS (phytotoxicity rating) [23]: 100; Pre-emerge Herbicidal Activity SOH (phytotoxicity rating) [24]: 100; Pre-emerge Herbicidal Activity CHA (phytotoxicity rating) [25]: 100; Pre-emerge crop damage CORN (phytotoxicity rating) [26]: 50; Pre-emerge Herbicidal Activity IPH (phytotoxicity rating) [27]: 100; Post-emerge Herbicidal Activity CAO (phytotoxicity rating) [28]: 100; Post-emerge Herbicidal Activity CHA (phytotoxicity rating) [29]: 100; Pre-emerge crop damage RICE (phytotoxicity rating) [30]: 65
CCC1C(=O)Nc2c3c(cc(F)c2-n2c(=O)cc(C(F)(F)F)n(C)c2=O)OCC(=O)N31 (stereo not drawn) [1-4]	15	80	0	90	100	100	100	100	60	50	99	90	25	60	100	100	0	100	75	100	Post-emerge Herbicidal Activity ABT (phytotoxicity rating) [21]: 100; Post-emerge Herbicidal Activity AMR (phytotoxicity rating) [22]: 0; Pre-emerge Herbicidal Activity DIS (phytotoxicity rating) [23]: 100; Pre-emerge Herbicidal Activity SOH (phytotoxicity rating) [24]: 100; Pre-emerge Herbicidal Activity CHA (phytotoxicity rating) [25]: 100; Pre-emerge crop damage CORN (phytotoxicity rating) [26]: 100; Pre-emerge Herbicidal Activity IPH (phytotoxicity rating) [27]: 100; Post-emerge Herbicidal Activity CAO (phytotoxicity rating) [28]: 0; Post-emerge Herbicidal Activity CHA (phytotoxicity rating) [29]: 99; Pre-emerge crop damage RICE (phytotoxicity rating) [30]: 99
O=C1CN2C(=O)COc3cc(F)c(-c4ncc(C(F)(F)F)cc4Cl)c(c32)N1 [1-63]	99	45	20	100	100	100	100	90	100	100	99	100	30	100	50	100	80	100	75	100	Post-emerge Herbicidal Activity ABT (phytotoxicity rating) [21]: 100; Post-emerge Herbicidal Activity AMR (phytotoxicity rating) [22]: 100; Pre-emerge Herbicidal Activity DIS (phytotoxicity rating) [23]: 100; Pre-emerge Herbicidal Activity SOH (phytotoxicity rating) [24]: 100; Pre-emerge Herbicidal Activity CHA (phytotoxicity rating) [25]: 100; Pre-emerge crop damage CORN (phytotoxicity rating) [26]: 100; Pre-emerge Herbicidal Activity IPH (phytotoxicity rating) [27]: 100; Post-emerge Herbicidal Activity CAO (phytotoxicity rating) [28]: 50; Post-emerge Herbicidal Activity CHA (phytotoxicity rating) [29]: 100; Pre-emerge crop damage RICE (phytotoxicity rating) [30]: 100
Cc1nn(-c2c(F)cc3c4c2NC(=O)C(C)N4C(=O)CO3)c(=O)n1C(F)F (stereo not drawn) [1-74]	0	55	0	10	98	98	80	98	0	0	75	0	0	65	95	100	0	100	0	98	Post-emerge Herbicidal Activity ABT (phytotoxicity rating) [21]: 55; Post-emerge Herbicidal Activity AMR (phytotoxicity rating) [22]: 60; Pre-emerge Herbicidal Activity DIS (phytotoxicity rating) [23]: 99; Pre-emerge Herbicidal Activity SOH (phytotoxicity rating) [24]: 99; Pre-emerge Herbicidal Activity CHA (phytotoxicity rating) [25]: 99; Pre-emerge crop damage CORN (phytotoxicity rating) [26]: 100; Pre-emerge Herbicidal Activity IPH (phytotoxicity rating) [27]: 95; Post-emerge Herbicidal Activity CAO (phytotoxicity rating) [28]: 0; Post-emerge Herbicidal Activity CHA (phytotoxicity rating) [29]: 65; Pre-emerge crop damage RICE (phytotoxicity rating) [30]: 99
